Results from PMC9516332 (Frontiers in Oncology, 2022).
Read-outs that look alike come from different tables or passages of the source.

Tested on: 134 cancer cell lines
Test: Cell viability assay (ATPlite, 72 hours), IC50 on cancer cell line panel

Work on `CN1CCN(c2ccc(C(=O)Nc3n[nH]c4ccc(Cc5cc(F)cc(F)c5)cc34)c(NC3CCOCC3)c2)CC1` [entrectinib] yielded an IC50 (HEC-6, read-out: IC50 in cell proliferation assay, HEC-6 cell line (EGFR p.A289V)) of 6.83 µM, an IC50 (Homo sapiens, 769-P, read-out: IC50 in cell proliferation assay, cell line 769-P) of 6.69 µM and an IC50 (Homo sapiens, 786-0, read-out: IC50 in cell proliferation assay, cell line 786-O) of 5.12 µM. It also gave an IC50 (Homo sapiens, A 172, read-out: IC50 in cell proliferation assay, cell line A-172) of 4.96 µM, an IC50 (Homo sapiens, A204, read-out: IC50 in cell proliferation assay, cell line A-204) of 5.98 µM and an IC50 (Homo sapiens, A498, read-out: IC50 in cell proliferation assay, cell line A-498) of 7.97 µM. For the same compound, the IC50 (Homo sapiens, A549, read-out: IC50 in cell proliferation assay, cell line A-549) was 8.78 µM, the IC50 (Homo sapiens, A704, read-out: IC50 in cell proliferation assay, cell line A-704) was 6.87 µM and the IC50 (Homo sapiens, A-375, read-out: IC50 in cell proliferation assay, cell line A-375 (BRAF p.V600E)) was 5.84 µM. For the same compound, the IC50 (Homo sapiens, A-427, read-out: IC50 in cell proliferation assay, cell line A-427) was 3.49 µM, the IC50 (Homo sapiens, ACHN, read-out: IC50 in cell proliferation assay, cell line ACHN) was 5.79 µM and the IC50 (Homo sapiens, AN3-CA, read-out: IC50 in cell proliferation assay, cell line AN3-CA (FGFR2 p.N549K)) was 3.78 µM. It also gave an IC50 (Homo sapiens, ASPC1, read-out: IC50 in cell proliferation assay, cell line AsPC-1) of 7.99 µM, an IC50 (Homo sapiens, AU565, read-out: IC50 in cell proliferation assay, cell line AU565 (ERBB2 amplification)) of 8.63 µM and an IC50 (Homo sapiens, BT-20, read-out: IC50 in cell proliferation assay, cell line BT-20) of 10.7 µM. It also gave an IC50 (Homo sapiens, BT-474, read-out: IC50 in cell proliferation assay, cell line BT-474 (ERBB2 amplification)) of 6.15 µM, an IC50 (Homo sapiens, BT-549, read-out: IC50 in cell proliferation assay, cell line BT-549) of 7.41 µM and an IC50 (Homo sapiens, BXPC-3, read-out: IC50 in cell proliferation assay, cell line BxPC-3) of 6.09 µM. For the same compound, the IC50 (Homo sapiens, C-33-A, read-out: IC50 in cell proliferation assay, cell line C-33 A) was 5.23 µM, the IC50 (Homo sapiens, CAL-27, read-out: IC50 in cell proliferation assay, cell line CAL-27) was 5.15 µM and the IC50 (Homo sapiens, CCF-STTG1, read-out: IC50 in cell proliferation assay, cell line CCF-STTG1) was 10.7 µM. The IC50 (Homo sapiens, CCRF-CEM, read-out: IC50 in cell proliferation assay, cell line CCRF-CEM) was 9.03 µM, the IC50 (Homo sapiens, COLO 205, read-out: IC50 in cell proliferation assay, cell line COLO 205 (BRAF p.V600E)) was 7.72 µM and the IC50 (Homo sapiens, COLO-829, read-out: IC50 in cell proliferation assay, cell line COLO 829 (BRAF p.V600E)) was 8.95 µM. The IC50 (Homo sapiens, DLD-1, read-out: IC50 in cell proliferation assay, cell line DLD-1) was 10.5 µM, the IC50 (Homo sapiens, DU-4475, read-out: IC50 in cell proliferation assay, cell line DU4475 (BRAF p.V600E)) was 8.22 µM and the IC50 (Homo sapiens, Daoy, read-out: IC50 in cell proliferation assay, cell line Daoy) was 5.1 µM. It also gave an IC50 (Homo sapiens, DoTc2-4510, read-out: IC50 in cell proliferation assay, cell line DoTc2 4510) of 4.69 µM, an IC50 (Homo sapiens, EOL1, read-out: IC50 in cell proliferation assay, cell line EoL-1 (FIP1L1-PDGFRA)) of 0.512 µM and an IC50 (Homo sapiens, FaDu, read-out: IC50 in cell proliferation assay, cell line FaDu) of 5.64 µM. It also gave an IC50 (Homo sapiens, G-361, read-out: IC50 in cell proliferation assay, cell line G-361 (BRAF p.V600E)) of 4.67 µM, an IC50 (Homo sapiens, HCC827, read-out: IC50 in cell proliferation assay, cell line HCC827 (EGFR exon19del)) of 2.98 µM and an IC50 (Homo sapiens, HCC4006, read-out: IC50 in cell proliferation assay, cell line HCC4006 (EGFR exon19del)) of 4.96 µM. The IC50 (Homo sapiens, HCT-15, read-out: IC50 in cell proliferation assay, cell line HCT 15) was 7.64 µM, the IC50 (Homo sapiens, HCT-116, read-out: IC50 in cell proliferation assay, cell line HCT 116) was 4.66 µM and the IC50 (Homo sapiens, HEC-1, read-out: IC50 in cell proliferation assay, HEC-1 cell line) was 3.73 µM. For the same compound, the IC50 (Homo sapiens, HEC-1B, read-out: IC50 in cell proliferation assay, HEC-1-B cell line (EGFR p.A864V)) was 2.24 µM, the IC50 (Homo sapiens, HL-60, read-out: IC50 in cell proliferation assay, HL-60 cell line) was 5.68 µM and the IC50 (Homo sapiens, HT, read-out: IC50 in cell proliferation assay, HT cell line) was 12 µM. It also gave an IC50 (Homo sapiens, HT-1080, read-out: IC50 in cell proliferation assay, HT-1080 cell line) of 7.36 µM, an IC50 (Homo sapiens, Hs746T, read-out: IC50 in cell proliferation assay, Hs 746.T cell line (MET exon14skip + amplification)) of 10.9 µM and an IC50 (Homo sapiens, Hs-578T, read-out: IC50 in cell proliferation assay, Hs 578T cell line) of 7.05 µM. For the same compound, the IC50 (Homo sapiens, HuTu80, read-out: IC50 in cell proliferation assay, HuTu 80 cell line) was 3.57 µM, the IC50 (Homo sapiens, J82, read-out: IC50 in cell proliferation assay, J82 cell line) was 7.16 µM and the IC50 (Homo sapiens, Jurkat E6.1, read-out: IC50 in cell proliferation assay, Jurkat E6.1 cell line) was 8.24 µM. The IC50 (Homo sapiens, K562, read-out: IC50 in cell proliferation assay, K-562 cell line) was 5.82 µM, the IC50 (Homo sapiens, KATO III, read-out: IC50 in cell proliferation assay, KATO III cell line (FGFR2 amplification)) was 1.43 µM and the IC50 (Homo sapiens, KG-1, read-out: IC50 in cell proliferation assay, KG-1 cell line (FGFR1OP2-FGFR1)) was 1.53 µM. It also gave an IC50 (Homo sapiens, KLE, read-out: IC50 in cell proliferation assay, KLE cell line) of 4.33 µM, an IC50 (Homo sapiens, KMS-11, read-out: IC50 in cell proliferation assay, KMS-11 cell line (FGFR3 p.Y373C)) of 4.82 µM and an IC50 (Homo sapiens, KU812, read-out: IC50 in cell proliferation assay, Ku812 cell line) of 4.72 µM. It also gave an IC50 (Homo sapiens, Kasumi 1, read-out: IC50 in cell proliferation assay, Kasumi-1 cell line (KIT p.N822K)) of 3.68 µM, an IC50 (Homo sapiens, LC-2-ad, read-out: IC50 in cell proliferation assay, LC-2/ad cell line (CCDC6-RET)) of 1.81 µM and an IC50 (Homo sapiens, LNCaP-Clone-FGC, read-out: IC50 in cell proliferation assay, LNCaP clone FGC cell line) of 10.9 µM. For the same compound, the IC50 (Homo sapiens, LS174T, read-out: IC50 in cell proliferation assay, LS174T cell line) was 4.9 µM, the IC50 (Homo sapiens, LS-411N, read-out: IC50 in cell proliferation assay, LS411N cell line (BRAF p.V600E)) was 9.55 µM and the IC50 (Homo sapiens, LoVo, read-out: IC50 in cell proliferation assay, LoVo cell line) was 9.52 µM. It also gave an IC50 (Homo sapiens, MCF7, read-out: IC50 in cell proliferation assay, MCF-7 cell line) of 3.83 µM, an IC50 (Homo sapiens, MDA-MB-231, read-out: IC50 in cell proliferation assay, MDA-MB-231 cell line) of 4.59 µM and an IC50 (Homo sapiens, MDA-MB-453, read-out: IC50 in cell proliferation assay, MDA-MB-453 cell line) of 11.5 µM. It also gave an IC50 (Homo sapiens, MDA-MB-468, read-out: IC50 in cell proliferation assay, MDA-MB-468 cell line) of 11 µM, an IC50 (Homo sapiens, MG-63, read-out: IC50 in cell proliferation assay, MG-63 cell line) of 3.8 µM and an IC50 (Homo sapiens, MIA PaCa-2, read-out: IC50 in cell proliferation assay, MIA PaCa-2 cell line) of 5.16 µM. It also gave an IC50 (Homo sapiens, MKN-45, read-out: IC50 in cell proliferation assay, MKN45 cell line (MET amplification)) of 11.8 µM, an IC50 (Homo sapiens, MOLM-13, read-out: IC50 in cell proliferation assay, MOLM-13 cell line (FLT3 ITD)) of 0.214 µM and an IC50 (Homo sapiens, MOLT-4, read-out: IC50 in cell proliferation assay, MOLT-4 cell line) of 11.3 µM. The IC50 (Homo sapiens, MV4-11, read-out: IC50 in cell proliferation assay, MV4-11 cell line (FLT3 ITD)) was 0.281 µM and the IC50 (Homo sapiens, MeWo, read-out: IC50 in cell proliferation assay, MeWo cell line) was 10.1 µM.
